Patent publication US20240116946A1 (Gilead Sciences, Inc., priority 2022, published 2024)
Like-named read-outs stand apart in the source and are kept apart here.

Legend:
SARS-CoV-2-NLuc = experiment: microbe, parasite or virus in culture; format: cell-based, SARS Coronavirus 2
[1] = target: recombinant SARS-CoV-2 Main protease (Mpro) (Severe acute respiratory syndrome coronavirus 2 (2019-nCoV) (SARS-CoV-2), UniProt P0DTD1); experiment: Cov Mpro Biochemical IC50 Assay; conditions: read-out: MPro IC50
[2] = Severe acute respiratory syndrome coronavirus, 48 h, read-out: MPro EC50
[3] = recombinant SARS-CoV-2 Mpro, fluorogenic peptide substrate
[4] = Severe acute respiratory syndrome coronavirus, 48 h; read-out: MPro EC50
[5] = recombinant SARS-CoV-2 Mpro 7.5 nM, fluorogenic peptide substrate 40 μM

| SMILES | EC50 (SARS-CoV-2-NLuc; [2]) [nM] | IC50 [1, 3] [nM] | EC50 (SARS-CoV-2-NLuc; [4]) [nM] | IC50 [1, 5] [nM] |
| --- | --- | --- | --- | --- |
| COc1cc(-c2cc3[nH]c(=O)n(-c4cncc5ccccc45)c(=O)c3s2)c(Cl)cn1 [Example 365] | 343 | 100 |  |  |
| Cc1nn(C)cc1-c1cc2[nH]c(=O)n(-c3cncc(C4CC4)c3)c(=O)c2s1 [Example 366] |  | 36800 | 32200 |  |
| COc1ccc(Cl)c(-c2cc3[nH]c(=O)n(-c4cncc(C5CC5)c4)c(=O)c3s2)c1 [Example 367] |  | 8.9 | 21.1 |  |
| Cc1noc(C)c1-c1cc2[nH]c(=O)n(-c3cncc(C4CC4)c3)c(=O)c2s1 [Example 368] |  | 411 | 1920 |  |
| COc1cnc(Cl)c(-c2cc3[nH]c(=O)n(-c4cncc(C5CC5)c4)c(=O)c3s2)c1 [Example 369] |  | 9.23 | 110 |  |
| O=c1[nH]c2cc(-c3c(Cl)cccc3Cl)sc2c(=O)n1-c1cncc(C2CC2)c1 [Example 370, 3-(5-cyclopropylpyridin-3-yl)-6-(2,6-dichlorophenyl)thieno[3,2-d]pyrimidine-2,4(1H,3H)-dione] |  | 273 | 388 |  |
| COc1ccc(Cl)c(-c2ccc3c(=O)n(-c4cncc5ccc(F)cc45)c(=O)[nH]c3c2)c1 [Example 371] |  | 55.9 | 108 |  |
| Cc1cncc(-n2c(=O)[nH]c3cc(-c4ccccc4Cl)sc3c2=O)c1OCC(F)(F)F [Example 372] | 176 | 77.8 |  |  |
| COc1ccc(Cl)c(-c2cc3[nH]c(=O)n(-c4cncc(C)c4OCC(F)(F)F)c(=O)c3s2)c1 [Example 373] |  | 14.6 | 46.9 |  |
| Cc1cncc(-n2c(=O)[nH]c3cc(-c4ccccc4Cl)ccc3c2=O)c1OCC(F)(F)F [Example 374] | 1240 | 1130 |  |  |
| COc1ccc(Cl)c(-c2ccc3c(=O)n(-c4cncc(C)c4OCC(F)(F)F)c(=O)[nH]c3c2)c1 [Example 375] |  | 345 | 632 |  |
| CC(C)c1cncc(-n2c(=O)[nH]c3cc(-c4ccccc4Cl)sc3c2=O)c1 [Example 376] | 47300 | 43300 |  |  |
| Cc1c(C2CC2)cncc1-n1c(=O)[nH]c2cc(-c3ccccc3Cl)sc2c1=O [Example 377] | 6230 | > 50000 |  |  |
| COc1cncc(-n2c(=O)[nH]c3cc(-c4ccccc4Cl)sc3c2=O)c1 [Example 378] |  | 304 | 359 |  |
| O=c1[nH]c2cc(-c3ccccc3Cl)sc2c(=O)n1-c1cncc(C2CCC2)c1 [Example 379] |  | 436 | 186 |  |
| CN(C)c1cncc(-n2c(=O)[nH]c3cc(-c4ccccc4Cl)sc3c2=O)c1 [Example 380] | 770 | 5950 |  |  |
| O=c1[nH]c2cc(-c3ccccc3Cl)sc2c(=O)n1-c1cncc(OCC(F)(F)F)c1 [Example 381] | 145 | 5070 |  |  |
| CC(C)Oc1cncc(-n2c(=O)[nH]c3cc(-c4ccccc4Cl)sc3c2=O)c1 [Example 382] | 208 | 4600 |  |  |
| CNC(=O)[C@H]1C[C@@H]1c1cncc(-n2c(=O)[nH]c3cc(-c4ccccc4Cl)sc3c2=O)c1 [Example 383] | 286 | 5.23 |  |  |
| O=c1[nH]c2cc(-c3ccccc3Cl)sc2c(=O)n1-c1cncc2ccc(N3CCOCC3)cc12 [Example 385, 6-(2-chlorophenyl)-3-(6-morpholinoisoquinolin-4-yl)thieno[3,2-d]pyrimidine-2,4(1H,3H)-dione] | 14 | 5.51 |  |  |
| CC(C)(O)[C@H](F)CNc1ccc2cncc(-n3c(=O)[nH]c4cc(-c5ccccc5Cl)sc4c3=O)c2c1 [Example 386] | 56.2 | 3.96 |  |  |
| CC(=O)N1CCN(c2ccc3cncc(-n4c(=O)[nH]c5cc(-c6ccccc6Cl)sc5c4=O)c3c2)CC1 [Example 387] | 30.3 | < 2.54 |  |  |
| CC(=O)NC1CCN(c2ccc3cncc(-n4c(=O)[nH]c5cc(-c6ccccc6Cl)sc5c4=O)c3c2)CC1 [Example 388] | 212 | 18.7 |  |  |
| CC(C)(O)CNc1ccc2cncc(-n3c(=O)[nH]c4cc(-c5ccccc5Cl)sc4c3=O)c2c1 [Example 389] | 131 | 26.7 |  |  |
| CC1(O)CN(c2ccc3cncc(-n4c(=O)[nH]c5cc(-c6ccccc6Cl)sc5c4=O)c3c2)C1 [Example 390] | 19.1 | 11.6 |  |  |

| SMILES | EC50 (SARS-CoV-2-NLuc; [2]) [nM] | IC50 [1, 3] [nM] | EC50 (SARS-CoV-2-NLuc; [4]) [nM] | IC50 [1, 5] [nM] |
| --- | --- | --- | --- | --- |
| CC1(N2CCN(c3ccc4cncc(-n5c(=O)[nH]c6cc(-c7ccccc7Cl)sc6c5=O)c4c3)CC2)COC1 [Example 391] | 10.2 | 6.25 |  |  |
| O=c1[nH]c2cc(-c3ccccc3Cl)sc2c(=O)n1-c1cncc2ccc(N3CCN(C4COC4)CC3)cc12 [Example 392] | 6.75 | < 2.54 |  |  |
| O=c1[nH]c2cc(-c3ccccc3Cl)sc2c(=O)n1-c1cncc2ccc(N3C[C@@H]4C[C@H]3CO4)cc12 [Example 393] | 12.2 |  |  | 9 |
| O=c1[nH]c2cc(-c3ccccc3Cl)sc2c(=O)n1-c1cncc2ccc(N3C[C@H]4C[C@@H]3CO4)cc12 [Example 394] | 5.75 |  |  | 5.1 |
| O=c1[nH]c2cc(-c3ccccc3Cl)sc2c(=O)n1-c1cncc2ccc(N3CC4(C3)CS(=O)(=O)C4)cc12 [Example 395] | 80.7 |  |  | 7.25 |
| Cc1nnc2n1CCN(c1ccc3cncc(-n4c(=O)[nH]c5cc(-c6ccccc6Cl)sc5c4=O)c3c1)C2 [Example 396] | 3010 |  |  | 14.9 |
| O=c1[nH]c2cc(-c3ccccc3Cl)sc2c(=O)n1-c1cncc2ccc(N3CC4(COC4)C3)cc12 [Example 397] | 15.2 |  |  | 3.51 |
| CO[C@H]1CCN(c2ccc3cncc(-n4c(=O)[nH]c5cc(-c6ccccc6Cl)sc5c4=O)c3c2)C1 [Example 398] | 18.7 |  |  | 3.38 |
| CN1CCN(c2ccc3cncc(-n4c(=O)[nH]c5cc(-c6ccccc6Cl)sc5c4=O)c3c2)CC1 [Example 400] | 6.07 |  |  | 6.04 |
| COC1CCN(c2ccc3cncc(-n4c(=O)[nH]c5cc(-c6ccccc6Cl)sc5c4=O)c3c2)CC1 [Example 401] | 10.6 |  |  | 3.84 |
| O=c1[nH]c2cc(-c3ccccc3Cl)sc2c(=O)n1-c1cncc2ccc(N3CC4(CCCO4)C3)cc12 [Example 402] | 12.1 |  |  | 6.05 |
| COCCNc1ccc2cncc(-n3c(=O)[nH]c4cc(-c5ccccc5Cl)sc4c3=O)c2c1 [Example 403] | 11.1 |  |  | 6.9 |
| CN(CCO)c1ccc2cncc(-n3c(=O)[nH]c4cc(-c5ccccc5Cl)sc4c3=O)c2c1 [Example 404] | 37.4 |  |  | 6.49 |
| O=C1C[C@@H](Nc2ccc3cncc(-n4c(=O)[nH]c5cc(-c6ccccc6Cl)sc5c4=O)c3c2)CN1 [Example 405] | 2930 |  |  | 12 |
| CS(=O)(=O)N1CC(Nc2ccc3cncc(-n4c(=O)[nH]c5cc(-c6ccccc6Cl)sc5c4=O)c3c2)C1 [Example 406] | 471 |  |  | 12.6 |
| COc1ccc(Cl)c(-c2ccc3c(=O)n(-c4cncc5ccc(N6CCC(F)(F)C6)cc45)c(=O)[nH]c3c2)c1 [Example 407] | 184 |  |  | 79.7 |
| COc1ccc(Cl)c(-c2ccc3c(=O)n(-c4cncc5ccc(N6CC(OC)C6)cc45)c(=O)[nH]c3c2)c1 [Example 408] | 108 |  |  | 42.7 |
| COc1ccc(Cl)c(-c2ccc3c(=O)n(-c4cncc5ccc(N6CC[C@H](OC)C6)cc45)c(=O)[nH]c3c2)c1 [Example 409] | 77.4 |  |  | 15.7 |
| COc1ccc(Cl)c(-c2ccc3c(=O)n(-c4cncc5ccc(N6CC7(CCOC7)C6)cc45)c(=O)[nH]c3c2)c1 [Example 410] |  |  | 58.6 | 12.8 |
| COc1ccc(Cl)c(-c2ccc3c(=O)n(-c4cncc5ccc(N6CC7(CNC(=O)C7)C6)cc45)c(=O)[nH]c3c2)c1 [Example 411] |  |  | 221 | 8.93 |
| COc1ccc(Cl)c(-c2ccc3c(=O)n(-c4cncc5ccc(N6CC7(COCCO7)C6)cc45)c(=O)[nH]c3c2)c1 [Example 412] |  |  | 38.3 | 10.8 |
| O=c1[nH]c2cc(-c3ccccc3Cl)sc2c(=O)n1-c1cncc2ccc(N3CCC(F)(F)C3)cc12 [Example 413] | 66.8 |  |  | 5.46 |
| COc1ccc(Cl)c(-c2cc3[nH]c(=O)n(-c4cncc5ccc(N6CCC(F)(F)C6)cc45)c(=O)c3s2)c1 [Example 414] | 20.1 |  |  | 7.63 |
| COc1ccc(Cl)c(-c2cc3[nH]c(=O)n(-c4cncc5ccc(N6CCO[C@H](C(F)(F)F)C6)cc45)c(=O)c3s2)c1 [Example 415] |  |  | 26.6 | 11.7 |
